Patent US20030224942A1, “Alkylamino-1,3,5-triazines, processes for their preparation and their use as herbicides and plant growth regulators” (priority 2001, published 2003)

Key:
[1] = tested on: Cyperus spp., Echinochloa spp., Digitaria spp., Sagitaria spp. and Scirpus spp.; experiment: Action on harmful plants in rice (paddy rice conditions, visual scoring); assay type: in vivo, typical rice weeds (gramineous and broad-leaved); settings: applied into the dammed water, visual scoring about three weeks after application
Summary of the method: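 Under paddy conditions with 2-3 cm dammed water, transplanted and sown rice plus weeds were treated at three-leaf stage (E. crus-galli at 1.5 leaves). Pots stayed in greenhouse under optimum growth conditions for the test period, with visual assessment of damage.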

[2] = tested on: Chenopodium spp., Papaver spp., Polygonum spp., Veronica spp. or Viola spp.; experiment: Post-emergence effect on weeds (greenhouse pot test, visual scoring); assay type: in vivo, monocotyledonous and dicotyledonous weeds; settings: treated at three-leaf stage; visual scoring after about 3 to 4 weeks; application rate of 0.5 kg and less of active substance per hectare

| Compound | herbicidal activity against harmful plants which are typical for rice crops [1] | herbicidal activity post-emergence against harmful plants [2] |
| --- | --- | --- |
| CC#Cc1cccc(C(C)Nc2nc(N)nc(C(C)(C)F)n2)c1 (centres unmarked) [Product P17.1582] | very good herbicidal activity | very good herbicidal activity |
| CC#Cc1ccc(C(C)Nc2nc(N)nc(C(C)(C)F)n2)cc1 (centres unmarked) [Product P17.1583] | very good herbicidal activity | very good herbicidal activity |
| CCCCC#Cc1cccc(C(C)Nc2nc(N)nc(C(C)(C)F)n2)c1 (centres unmarked) [Product P17.1594] | very good herbicidal activity | very good herbicidal activity |
| CCCCC#Cc1ccc(C(C)Nc2nc(N)nc(C(C)(C)F)n2)cc1 (centres unmarked) [Product P17.1595] | very good herbicidal activity | very good herbicidal activity |
| CC(F)C#Cc1cccc(C(C)Nc2nc(N)nc(C(C)(C)F)n2)c1 (centres unmarked) [Product P17.1597] | very good herbicidal activity | very good herbicidal activity |
| CC(F)C#Cc1ccc(C(C)Nc2nc(N)nc(C(C)(C)F)n2)cc1 (centres unmarked) [Product P17.1598] | very good herbicidal activity | very good herbicidal activity |
| CC(O)C#Cc1cccc(C(C)Nc2nc(N)nc(C(C)(C)F)n2)c1 (centres unmarked) [Product P17.1600] | very good herbicidal activity | very good herbicidal activity |
| CC(O)C#Cc1ccc(C(C)Nc2nc(N)nc(C(C)(C)F)n2)cc1 (centres unmarked) [Product P17.1601] | very good herbicidal activity | very good herbicidal activity |
| CC(Nc1nc(N)nc(C(C)(C)F)n1)c1cccc(C2CC2)c1 (centres unmarked) [Product P17.1603] | very good herbicidal activity | very good herbicidal activity |
| CC(Nc1nc(N)nc(C(C)(C)F)n1)c1ccc(C2CC2)cc1 (centres unmarked) [Product P17.1604] | very good herbicidal activity | very good herbicidal activity |
| C#Cc1ccc(C(C)Nc2nc(N)nc(C(C)(C)F)n2)cc1F (centres unmarked) [Product P17.1620] | very good herbicidal activity | very good herbicidal activity |
| C#Cc1cc(C(Nc2nc(N)nc(C(C)(C)F)n2)C2CC2)ccc1F (centres unmarked) [Product P19.309] | very good herbicidal activity | very good herbicidal activity |
| C#Cc1c(F)cc(C(Nc2nc(N)nc(C(C)(C)F)n2)C2CC2)cc1F (centres unmarked) [Product P19.352] | very good herbicidal activity | very good herbicidal activity |
| CC#Cc1cc(C(Nc2nc(N)nc(C(C)(C)F)n2)C2CC2)ccc1F (centres unmarked) [Product P19.384] | very good herbicidal activity | very good herbicidal activity |
| CC#Cc1c(F)cc(C(Nc2nc(N)nc(C(C)(C)F)n2)C2CC2)cc1F (centres unmarked) [Product P19.428] | very good herbicidal activity | very good herbicidal activity |
| CC(C)(F)c1nc(N)nc(NC(c2cccc(C(F)=C(F)F)c2)C2CC2)n1 (centres unmarked) [Product P19.1567] | very good herbicidal activity | very good herbicidal activity |
| CC(C)(F)c1nc(N)nc(NC(c2ccc(C(F)=C(F)F)cc2)C2CC2)n1 (centres unmarked) [Product P19.1568] | very good herbicidal activity | very good herbicidal activity |
| C#Cc1cccc(C(Nc2nc(N)nc(C(C)(C)F)n2)C2CC2)c1 (centres unmarked) [Product P19.1579] | very good herbicidal activity | very good herbicidal activity |
| C#Cc1ccc(C(Nc2nc(N)nc(C(C)(C)F)n2)C2CC2)cc1 (centres unmarked) [Product P19.1580] | very good herbicidal activity | very good herbicidal activity |

| Compound | herbicidal activity against harmful plants which are typical for rice crops [1] | herbicidal activity post-emergence against harmful plants [2] |
| --- | --- | --- |
| CC#Cc1cccc(C(Nc2nc(N)nc(C(C)(C)F)n2)C2CC2)c1 (centres unmarked) [Product P19.1582] | very good herbicidal activity | very good herbicidal activity |
| CC#Cc1ccc(C(Nc2nc(N)nc(C(C)(C)F)n2)C2CC2)cc1 (centres unmarked) [Product P19.1583] | very good herbicidal activity | very good herbicidal activity |
| CC(C)(F)c1nc(N)nc(NC(c2cccc(C3CC3)c2)C2CC2)n1 (centres unmarked) [Product P19.1603] | very good herbicidal activity | very good herbicidal activity |
| CC(C)(F)c1nc(N)nc(NC(c2ccc(C3CC3)cc2)C2CC2)n1 (centres unmarked) [Product P19.1604] | very good herbicidal activity | very good herbicidal activity |
| CC(F)c1nc(N)nc(NCc2ccc(F)c(C(F)=C(F)F)c2)n1 (centres unmarked) [Product P21.5] | very good herbicidal activity | very good herbicidal activity |
| CC(F)c1nc(N)nc(NCc2cc(F)c(C(F)=C(F)F)c(F)c2)n1 (centres unmarked) [Product P21.49] | very good herbicidal activity | very good herbicidal activity |
| C#Cc1cc(CNc2nc(N)nc(C(C)F)n2)ccc1F (centres unmarked) [Product P21.309] | very good herbicidal activity | very good herbicidal activity |
| C#Cc1c(F)cc(CNc2nc(N)nc(C(C)F)n2)cc1F (centres unmarked) [Product P21.352] | very good herbicidal activity | very good herbicidal activity |
| CC#Cc1cc(CNc2nc(N)nc(C(C)F)n2)ccc1F (centres unmarked) [Product P21.384] | very good herbicidal activity | very good herbicidal activity |
| CC#Cc1c(F)cc(CNc2nc(N)nc(C(C)F)n2)cc1F (centres unmarked) [Product P21.428] | very good herbicidal activity | very good herbicidal activity |
| CC(F)c1nc(N)nc(NCc2ccc(F)c(C3CC3)c2)n1 (centres unmarked) [Product P21.916] | very good herbicidal activity | very good herbicidal activity |
| CC(F)c1nc(N)nc(NCc2cccc(C(F)=C(F)F)c2)n1 (centres unmarked) [Product P21.1567] | very good herbicidal activity | very good herbicidal activity |
| CC(F)c1nc(N)nc(NCc2ccc(C(F)=C(F)F)cc2)n1 (centres unmarked) [Product P21.1568] | very good herbicidal activity | very good herbicidal activity |
| C#Cc1cccc(CNc2nc(N)nc(C(C)F)n2)c1 (centres unmarked) [Product P21.1579] | very good herbicidal activity | very good herbicidal activity |
| C#Cc1ccc(CNc2nc(N)nc(C(C)F)n2)cc1 (centres unmarked) [Product P21.1580] | very good herbicidal activity | very good herbicidal activity |
| CC#Cc1cccc(CNc2nc(N)nc(C(C)F)n2)c1 (centres unmarked) [Product P21.1582] | very good herbicidal activity | very good herbicidal activity |
| CC#Cc1ccc(CNc2nc(N)nc(C(C)F)n2)cc1 (centres unmarked) [Product P21.1583] | very good herbicidal activity | very good herbicidal activity |
| CC(F)c1nc(N)nc(NCc2cccc(C3CC3)c2)n1 (centres unmarked) [Product P21.1603] | very good herbicidal activity | very good herbicidal activity |
